Assays:
[1] = biological target: T1, Full length DGKζ (in-house protein M1-V929) (Homo sapiens, UniProt Q13574); experiment: Biochemical DGK IC50 assay (ADP-Glo, lipid micelle substrate), DGKζ; details: 1 hour preincubation, 1 hour reaction, room temperature
T1 construct: His (N); TEV site (N); made in house; host or cells: Sf9 insect cells (Bac-to-Bac baculovirus)
In short: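 Enzyme: full-length human DGKζ M1-V929, produced in baculovirus-infected Sf9 cells; substrate DAG/PS micelles. Buffer 50 mM HEPES, 10 mM MgCl2, 0.01 mM CaCl2, 0.1 mM Na3VO4.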

[2] = biological target: T2, Full length DGKα (D21-10BG, SignalChem) (Homo sapiens, UniProt P23743); experiment: Biochemical DGK IC50 assay (ADP-Glo, lipid micelle substrate), DGKα; details: 1 hour preincubation, 1 hour reaction, room temperature
T2 construct: Full length DGKα (D21-10BG, SignalChem); purchased SignalChem D21-10BG
In short: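 ADP-Glo luminescence quantified ADP produced after a 1 h room-temperature reaction of full-length DGKα on DAG/PS micelles, in HEPES buffer containing MgCl2, CaCl2, vanadate, BSA and Tween-20. IC50 values derive from activity inhibition over a compound concentration series.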

T2 sequence (P23743 whole entry): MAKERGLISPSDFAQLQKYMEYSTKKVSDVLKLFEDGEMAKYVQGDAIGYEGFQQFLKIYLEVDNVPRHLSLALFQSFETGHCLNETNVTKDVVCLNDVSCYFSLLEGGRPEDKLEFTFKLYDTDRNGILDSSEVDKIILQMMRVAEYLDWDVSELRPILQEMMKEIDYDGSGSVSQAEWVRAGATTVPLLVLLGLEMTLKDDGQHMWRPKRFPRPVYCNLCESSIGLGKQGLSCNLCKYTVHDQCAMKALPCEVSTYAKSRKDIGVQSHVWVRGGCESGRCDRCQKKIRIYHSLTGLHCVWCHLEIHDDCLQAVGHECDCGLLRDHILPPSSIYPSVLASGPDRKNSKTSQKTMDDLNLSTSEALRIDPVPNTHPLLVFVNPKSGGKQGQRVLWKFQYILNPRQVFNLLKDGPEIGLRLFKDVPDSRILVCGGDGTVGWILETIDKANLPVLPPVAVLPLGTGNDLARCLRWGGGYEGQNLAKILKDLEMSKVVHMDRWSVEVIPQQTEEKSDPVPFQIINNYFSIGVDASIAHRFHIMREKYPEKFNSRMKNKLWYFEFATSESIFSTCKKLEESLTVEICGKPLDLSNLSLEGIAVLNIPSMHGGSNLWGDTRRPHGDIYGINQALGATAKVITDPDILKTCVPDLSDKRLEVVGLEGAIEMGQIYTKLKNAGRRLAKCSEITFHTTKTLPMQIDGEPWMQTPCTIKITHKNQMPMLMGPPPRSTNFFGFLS
T1 sequence (Q13574 1-929 isoform Q13574-4): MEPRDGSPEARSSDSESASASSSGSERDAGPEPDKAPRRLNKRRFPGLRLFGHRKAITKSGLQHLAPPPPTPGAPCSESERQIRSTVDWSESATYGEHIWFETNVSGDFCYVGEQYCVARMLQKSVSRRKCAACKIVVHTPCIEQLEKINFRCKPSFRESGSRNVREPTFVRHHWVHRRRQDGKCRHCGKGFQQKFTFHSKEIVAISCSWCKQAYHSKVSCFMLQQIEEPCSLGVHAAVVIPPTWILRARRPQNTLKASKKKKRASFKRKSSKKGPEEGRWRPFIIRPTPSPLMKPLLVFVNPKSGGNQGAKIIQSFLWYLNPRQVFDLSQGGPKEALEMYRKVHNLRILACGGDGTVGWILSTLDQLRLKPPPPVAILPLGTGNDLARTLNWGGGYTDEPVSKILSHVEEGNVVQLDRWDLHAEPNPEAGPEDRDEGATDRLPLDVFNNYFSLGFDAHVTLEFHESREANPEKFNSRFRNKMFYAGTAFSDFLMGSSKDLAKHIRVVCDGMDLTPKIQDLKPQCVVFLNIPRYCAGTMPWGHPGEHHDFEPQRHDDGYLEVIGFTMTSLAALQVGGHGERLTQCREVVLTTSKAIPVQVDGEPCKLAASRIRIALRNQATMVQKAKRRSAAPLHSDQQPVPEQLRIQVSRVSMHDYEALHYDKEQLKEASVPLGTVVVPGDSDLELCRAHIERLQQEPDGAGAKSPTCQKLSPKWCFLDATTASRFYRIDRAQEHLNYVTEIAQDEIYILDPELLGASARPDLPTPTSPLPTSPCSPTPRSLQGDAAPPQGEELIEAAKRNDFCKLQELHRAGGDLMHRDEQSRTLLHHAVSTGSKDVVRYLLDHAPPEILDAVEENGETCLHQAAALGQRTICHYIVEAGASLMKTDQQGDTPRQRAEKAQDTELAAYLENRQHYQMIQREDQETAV

| IC50 [1] | IC50 [2] | SMILES |
| --- | --- | --- |
| 536 nM | 46500 nM | CCn1c(CC#N)nc2c(N3C[C@@H](C)N(C(C)c4ccc5c(c4)OC(F)(F)O5)C[C@@H]3C)nc(=O)n(C)c21 (single isomer, unassigned) [Compound A99b] |
| 22 nM | 113000 nM | CCn1c(CC#N)nc2c(N3C[C@@H](C)N(C(C)c4cccc(C(C)(C)C#N)c4)C[C@@H]3C)nc(=O)n(C)c21 (stereo partly drawn) [Compound A134, 2-(3-(1-((2R,5S)-4-(8-(cyanomethyl)-9-ethyl-3-methyl-2-oxo-3,9-dihydro-2H-purin-6-yl)-2,5-dimethylpiperazin-1-yl)ethyl)phenyl)-2-methylpropanenitrile] |
| 810 nM | 108000 nM | CCn1c(CC#N)nc2c(N3C[C@@H](C)N(C(C)c4ccc5nc(C)sc5c4)C[C@@H]3C)nc(=O)n(C)c21 (single isomer, unassigned) [Compound A56a] |
| 23 nM | 50900 nM | CCn1c(CC#N)nc2c(N3C[C@@H](C)N(C(C)c4ccc5nc(C)sc5c4)C[C@@H]3C)nc(=O)n(C)c21 (single isomer, unassigned) [Compound A56b] |
| 2 nM | 10300 nM | CC[C@@H]1CN(c2nc(=O)n(C)c3c2nc(CC#N)n3C)[C@@H](C)CN1C(C)c1ccc2c(c1)OC(C)(C)CO2 (single isomer, unassigned) [Compound A63a] |
| 6 nM | 14100 nM | CCn1c(CC#N)nc2c(N3C[C@@H](C)N(C(C)c4cc5c(cc4F)OC(C)(C)CO5)C[C@@H]3C)nc(=O)n(C)c21 (single isomer, unassigned) [Compound A156b] |
| 82 nM | 6940 nM | CC(c1ccc2c(c1)OC(C)(C)CO2)N1C[C@H](C)N(c2c(F)c(=O)n(C)c3c2nc(CC#N)n3C)C[C@H]1C (single isomer, unassigned) [Compound A19b] |
| 33 nM | 122000 nM | CC[C@@H]1CN(c2nc(=O)n(C)c3c2nc(CC#N)n3CC)[C@@H](C)CN1C(C)c1ccc2c(n1)OC(C)(C)CO2 (mixture of isomers) [Compound A158, 2-(6-((2S,5R)-4-(1-(3,3-dimethyl-2,3-dihydro-[1,4]dioxino[2,3-b]pyridin-6-yl)ethyl)-5-ethyl-2-methylpiperazin-1-yl)-9-ethyl-3-methyl-2-oxo-3,9-dihydro-2H-purin-8-yl)acetonitrile] |
| 42 nM | 50500 nM | CCc1nc2cc(C(C)N3C[C@H](C)N(c4nc(=O)n(C)c5c4nc(CC#N)n5CC)C[C@H]3C)ccc2s1 (mixture of isomers) [Compound A95, 2-(9-ethyl-6-((2S,5R)-4-(1-(2-ethylbenzo[d]thiazol-5-yl)ethyl)-2,5-dimethylpiperazin-1-yl)-3-methyl-2-oxo-3,9-dihydro-2H-purin-8-yl)acetonitrile] |
| 1480 nM | > 10000 nM | Cc1ccc(C(C)N2C[C@H](C)N(c3cc(=O)n(C)c4c3nc(CC#N)n4C)C[C@H]2C)c(C(F)(F)F)c1 (single isomer, unassigned) [Compound A8a] |
| 1290 nM | > 150000 nM | CCn1c(CC#N)nc2c(N3C[C@@H](C)N(C(C)c4cccc(N5CCOCC5)c4)C[C@@H]3C)nc(=O)n(C)c21 (stereo partly drawn) [Compound A141, 2-(6-((2S,5R)-2,5-dimethyl-4-(1-(3-morpholinophenyl)ethyl)piperazin-1-yl)-9-ethyl-3-methyl-2-oxo-3,9-dihydro-2H-purin-8-yl)acetonitrile] |
| 10 nM | 31700 nM | CCn1c(CC#N)nc2c(N3C[C@@H](C)N(C(C)c4ccc5c(c4)OC4(CCC4)O5)C[C@@H]3C)nc(=O)n(C)c21 (single isomer, unassigned) [Compound A169a] |
| 123 nM | > 150000 nM | CCn1c(CC#N)nc2c(N3C[C@@H](C)N(C(C)c4ccc5ccn(C)c(=O)c5c4)C[C@@H]3C)nc(=O)n(C)c21 (stereo partly drawn) [Compound A92, 2-(6-((2S,5R)-2,5-dimethyl-4-(1-(2-methyl-1-oxo-1,2-dihydroisoquinolin-7-yl)ethyl)piperazin-1-yl)-9-ethyl-3-methyl-2-oxo-3,9-dihydro-2H-purin-8-yl)acetonitrile] |
| 22 nM | 7400 nM | CC[C@@H]1CN(c2nc(=O)n(C)c3c2nc(CC#N)n3C)[C@@H](C)CN1C(C)c1ccc2c(c1)OC(C)(C)CO2 (single isomer, unassigned) [Compound A63b] |
| 14 nM | 23200 nM | CCn1c(CC#N)nc2c(N3C[C@@H](C)N(C(C)c4ccc5c(c4)OC(C)(C)CC5)C[C@@H]3C)nc(=O)n(C)c21 (mixture of isomers) [Compound A94, 2-(6-((2S,5R)-4-(1-(2,2-dimethylchroman-7-yl)ethyl)-2,5-dimethylpiperazin-1-yl)-9-ethyl-3-methyl-2-oxo-3,9-dihydro-2H-purin-8-yl)acetonitrile] |
| 64 nM | > 150000 nM | CCn1c(CC#N)nc2c(N3C[C@@H](C)N(C(C)c4cc(Cl)c5c(c4)OC(C)(C)CO5)C[C@@H]3C)nc(=O)n(C)c21 (stereo partly drawn) [Compound A72, 2-(6-((2S,5R)-4-(1-(8-chloro-3,3-dimethyl-2,3-dihydrobenzo[b][1,4]dioxin-6-yl)ethyl)-2,5-dimethylpiperazin-1-yl)-9-ethyl-3-methyl-2-oxo-3,9-dihydro-2H-purin-8-yl)acetonitrile] |
| 20 nM | 13300 nM | CC(c1ccc2c(c1)OCCO2)N1C[C@H](C)N(c2nc(=O)n(C)c3c2nc(CC#N)n3C)C[C@H]1C (single isomer, unassigned) [Compound A58a] |
| 111 nM | > 150000 nM | CCn1c(CC#N)nc2c(N3C[C@@H](C)N(C(C)c4cccc(C(C)(C)CO)c4)C[C@@H]3C)nc(=O)n(C)c21 (stereo partly drawn) [Compound A133, 2-(9-ethyl-6-((2S,5R)-4-(1-(3-(1-hydroxy-2-methylpropan-2-yl)phenyl)ethyl)-2,5-dimethylpiperazin-1-yl)-3-methyl-2-oxo-3,9-dihydro-2H-purin-8-yl)acetonitrile] |
| 1280 nM | > 150000 nM | CCn1c(CC#N)nc2c(N3C[C@@H](C)N(C(C)c4cc(C(F)(F)F)ccn4)C[C@@H]3C)nc(=O)n(C)c21 (stereo partly drawn) [Compound A120, 2-(6-((2S,5R)-2,5-dimethyl-4-(1-(4-(trifluoromethyl)pyridin-2-yl)ethyl)piperazin-1-yl)-9-ethyl-3-methyl-2-oxo-3,9-dihydro-2H-purin-8-yl)acetonitrile] |
| 16 nM | 16400 nM | CC(c1ccc2c(c1)OC(F)(F)C(F)(F)O2)N1C[C@H](C)N(c2nc(=O)n(C)c3c2nc(CC#N)n3C)C[C@H]1C (mixture of isomers) [Compound A79, 2-(6-((2S,5R)-2,5-dimethyl-4-(1-(2,2,3,3-tetrafluoro-2,3-dihydrobenzo[b][1,4]dioxin-6-yl)ethyl)piperazin-1-yl)-3,9-dimethyl-2-oxo-3,9-dihydro-2H-purin-8-yl)acetonitrile] |
| 5 nM | 93000 nM | CCn1c(CC#N)nc2c(N3C[C@@H](C)N(C(C)c4ccc5c(c4)OC(C)(C)CO5)C[C@@H]3C)c(F)c(=O)n(C)c21 (stereo partly drawn) [Compound A20, 2-(7-((2S,5R)-4-(1-(3,3-dimethyl-2,3-dihydrobenzo[b][1,4]dioxin-6-yl)ethyl)-2,5-dimethylpiperazin-1-yl)-3-ethyl-6-fluoro-4-methyl-5-oxo-4,5-dihydro-3H-imidazo[4,5-b]pyridin-2-yl)acetonitrile] |
| 213 nM | > 150000 nM | CCn1c(CC#N)nc2c(N3C[C@@H](C)N(C(C)c4ccc5ccc(C)nc5c4)C[C@@H]3C)nc(=O)n(C)c21 (stereo partly drawn) [Compound A90, 2-(6-((2S,5R)-2,5-dimethyl-4-(1-(2-methylquinolin-7-yl)ethyl)piperazin-1-yl)-9-ethyl-3-methyl-2-oxo-3,9-dihydro-2H-purin-8-yl)acetonitrile] |
| 8 nM | 116000 nM | CCn1c(CC#N)nc2c(N3C[C@@H](C)N(C(C)c4ccc5c(c4Cl)OC(C)(C)O5)C[C@@H]3C)nc(=O)n(C)c21 (single isomer, unassigned) [Compound A172b] |
| 11 nM | 51100 nM | CCn1c(CC#N)nc2c(N3C[C@@H](C)N(C(C)c4ccc5c(c4)OC(C)(C)C5)C[C@@H]3C)nc(=O)n(C)c21 (stereo partly drawn) [Compound A97, 2-(6-((2S,5R)-4-(1-(2,2-dimethyl-2,3-dihydrobenzofuran-6-yl)ethyl)-2,5-dimethylpiperazin-1-yl)-9-ethyl-3-methyl-2-oxo-3,9-dihydro-2H-purin-8-yl)acetonitrile] |
| 771 nM | > 150000 nM | CCn1c(CC#N)nc2c(N3C[C@@H](C)N(C(C)c4cccc(C(C)(C)O)c4)C[C@@H]3C)nc(=O)n(C)c21 (stereo partly drawn) [Compound A111, 2-(9-ethyl-6-((2S,5R)-4-(1-(3-(2-hydroxypropan-2-yl)phenyl)ethyl)-2,5-dimethylpiperazin-1-yl)-3-methyl-2-oxo-3,9-dihydro-2H-purin-8-yl)acetonitrile] |
| 24 nM | 60300 nM | CCn1c(=O)nc(N2C[C@@H](C)N(C(C)c3ccc4ncc(C)nc4c3)C[C@@H]2C)c2nc(CC#N)n(C)c21 (single isomer, unassigned) [Compound A53a] |
| 64 nM | > 10000 nM | COc1cc(F)ccc1C(C)N1C[C@H](C)N(c2cc(=O)n(C)c3c2nc(CC#N)n3C)C[C@H]1C (single isomer, unassigned) [Compound A4b] |
| 8 nM | 61900 nM | CC[C@@H]1CN(c2nc(=O)n(C)c3c2nc(CC#N)n3CC)[C@@H](C)CN1C(C)c1ccc2c(n1)OC(C)(C)CO2 (single isomer, unassigned) [Compound A158a] |
| 409 nM | 1580 nM | Cc1cccc(C(C)N2C[C@H](C)N(c3c(F)c(=O)n(C)c4c3nc(CC#N)n4C)C[C@H]2C)c1C(F)(F)F (single isomer, unassigned) [Compound A17b] |

Source: patent publication US20260125378A2, “Heterocyclic Compounds” (BeOne Medicines I GmbH, priority 2023, published 2026)
